Here are results for 13 compounds from patent publication US20250170266A1 (ZYMEWORKS BC INC., priority 2022, published 2025).

For orientation: EC50 means the concentration giving half of the maximal effect.

Common to all, as to format: cell-based
For one experiment, the target named is T1, mTLR7 (Mus musculus, UniProt P58681).
T1 construct: host or cells: HEK-Blue mTLR7 reporter cells (HEK293-derived, own knowledge)
T1 sequence (P58681 27-1050): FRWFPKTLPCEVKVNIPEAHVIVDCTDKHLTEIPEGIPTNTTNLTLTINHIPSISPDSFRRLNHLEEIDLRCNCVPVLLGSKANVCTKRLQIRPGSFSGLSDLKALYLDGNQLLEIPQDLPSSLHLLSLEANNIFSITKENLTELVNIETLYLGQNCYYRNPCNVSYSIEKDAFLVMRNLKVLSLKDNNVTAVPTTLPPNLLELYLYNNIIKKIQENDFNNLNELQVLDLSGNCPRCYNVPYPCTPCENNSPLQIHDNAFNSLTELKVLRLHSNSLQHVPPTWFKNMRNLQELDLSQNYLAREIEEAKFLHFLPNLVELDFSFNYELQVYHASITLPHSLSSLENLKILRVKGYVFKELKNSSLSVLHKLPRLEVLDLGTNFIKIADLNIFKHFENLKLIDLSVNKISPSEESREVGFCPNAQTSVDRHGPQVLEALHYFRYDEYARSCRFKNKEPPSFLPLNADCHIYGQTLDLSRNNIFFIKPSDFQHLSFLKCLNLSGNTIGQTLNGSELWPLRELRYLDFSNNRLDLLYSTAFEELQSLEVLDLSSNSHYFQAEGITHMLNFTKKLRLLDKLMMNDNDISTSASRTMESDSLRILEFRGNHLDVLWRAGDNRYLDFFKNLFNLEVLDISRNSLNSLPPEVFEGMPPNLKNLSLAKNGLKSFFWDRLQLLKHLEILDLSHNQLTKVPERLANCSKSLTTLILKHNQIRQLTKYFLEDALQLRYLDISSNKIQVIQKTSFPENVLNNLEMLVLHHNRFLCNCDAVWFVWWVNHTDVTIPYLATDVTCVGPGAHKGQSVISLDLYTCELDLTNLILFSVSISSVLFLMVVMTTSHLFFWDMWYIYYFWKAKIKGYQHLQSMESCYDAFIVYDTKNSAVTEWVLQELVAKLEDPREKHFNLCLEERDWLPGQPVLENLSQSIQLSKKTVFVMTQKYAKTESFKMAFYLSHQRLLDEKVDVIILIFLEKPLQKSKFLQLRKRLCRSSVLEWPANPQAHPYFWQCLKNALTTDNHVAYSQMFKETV
In words: Reporter Gene Assay (RGA), HEK-Blue mTLR7 reporter cells, SEAP readout. The settings on record: overnight incubation, SEAP absorbance 620 nm. The gist of the method: (§1)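 HEK-Blue reporter cells expressing human or mouse TLR7 (1.5×10^4 cells) were treated with an 11-point, 4-fold compound titration from 15 pM in HEK-Blue Detection medium. Incubation was overnight at 37° C with 5% CO2. Secreted embryonic alkaline phosphatase was read as absorbance at 620 nm.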

In the next experiment the target is T2, hTLR7 (Homo sapiens, UniProt Q9NYK1).
T2 construct: host or cells: HEK-Blue hTLR7 reporter cells (HEK293-derived, own knowledge)
T2 sequence (Q9NYK1 27-1049): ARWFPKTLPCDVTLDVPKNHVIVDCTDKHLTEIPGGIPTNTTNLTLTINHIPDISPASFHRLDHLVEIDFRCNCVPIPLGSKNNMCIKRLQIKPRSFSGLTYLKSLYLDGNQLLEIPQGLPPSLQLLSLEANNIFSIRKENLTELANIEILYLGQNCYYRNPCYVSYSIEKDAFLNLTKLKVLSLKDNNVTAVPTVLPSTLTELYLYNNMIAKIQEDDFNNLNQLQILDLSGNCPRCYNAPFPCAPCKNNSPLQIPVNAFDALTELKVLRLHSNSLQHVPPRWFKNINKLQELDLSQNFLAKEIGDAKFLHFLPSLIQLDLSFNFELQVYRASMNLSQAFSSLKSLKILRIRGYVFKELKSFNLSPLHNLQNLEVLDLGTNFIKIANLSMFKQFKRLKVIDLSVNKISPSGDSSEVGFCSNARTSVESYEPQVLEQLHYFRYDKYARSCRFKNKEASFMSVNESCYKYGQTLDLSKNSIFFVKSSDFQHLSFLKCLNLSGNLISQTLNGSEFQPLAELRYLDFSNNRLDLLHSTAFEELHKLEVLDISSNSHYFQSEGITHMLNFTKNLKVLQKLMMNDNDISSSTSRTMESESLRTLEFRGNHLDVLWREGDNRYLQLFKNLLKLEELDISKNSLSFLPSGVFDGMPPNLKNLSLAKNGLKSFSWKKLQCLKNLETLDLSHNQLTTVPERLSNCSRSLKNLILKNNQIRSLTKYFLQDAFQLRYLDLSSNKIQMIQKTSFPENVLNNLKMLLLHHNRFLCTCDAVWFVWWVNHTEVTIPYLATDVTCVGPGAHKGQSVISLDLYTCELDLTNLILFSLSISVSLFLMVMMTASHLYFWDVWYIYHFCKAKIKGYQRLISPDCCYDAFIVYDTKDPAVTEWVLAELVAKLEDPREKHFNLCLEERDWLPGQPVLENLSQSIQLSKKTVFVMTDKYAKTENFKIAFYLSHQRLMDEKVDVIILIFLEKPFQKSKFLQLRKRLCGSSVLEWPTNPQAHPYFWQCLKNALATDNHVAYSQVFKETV
In words: Reporter Gene Assay (RGA), HEK-Blue hTLR7 reporter cells, SEAP readout. The settings on record: overnight incubation, SEAP absorbance 620 nm. The gist of the method:
as §1
For orientation: A reporter such as luciferase makes a cellular process visible.

The test system of another experiment is Mouse splenocytes. The experiment is described as follows: Mouse Splenocyte Assay, cytokine release (HTRF). The following applies: 24 hours, mIL6 in supernatant; for EC50: Splenocyte, read-out: Splenocyte IL6 EC50. The gist of the method:
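Splenocytes from female balb/c nude mice, thawed, 100,000 per well in RPMI + 10% FBS. Exposed for 24 h at 37 °C to a 4-fold 11-point compound titration from 15 μM; supernatant mIL6 and mTNFα measured by HTRF.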
For orientation: Time-resolved FRET reads energy transfer from a long-lived donor to a nearby acceptor.

For experiment [1], the system named is Human peripheral blood mononuclear cells (PBMCs). In words: Human PBMC Assay, cytokine release (HTRF). The settings on record: 24 hours; for EC50: PBMC. The gist of the method:
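Cryopreserved human PBMCs, rested overnight with 10 ng/ml hIL3, then 300,000 cells/well treated 24 h at 37° C with compound (4-fold, 11-point titration from 15 μM) in RPMI+10% FBS. Supernatant hIL6, hTNFα and hIFNα measured by HTRF; growth medium as negative control.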

Where [2] appears, read: hIFNα in supernatant, EC50 values approximated and divided into groups, read-out: PBMC IFNa EC50.
The mark [3] stands for this setting: hIL6 in supernatant, read-out: PBMC IL6 EC50.

Like-named read-outs stand apart in the source and are kept apart here. Some results are limits rather than exact numbers.

In the case of `CCCCOc1nc(N)c2nc(O)n(Cc3ccc(CCCN4CCC(CCN)CC4)cc3OC)c2n1` [Compound 175, 6-amino-9-(4-(3-(4-(2-aminoethyl)piperidin-1-yl)propyl)-2-methoxybenzyl)-2-butoxy-9H-purin-8-ol], the concentration for a half-maximal effect (EC50) is less than 0.1 nM on mTLR7, less than 0.1 nM on hTLR7, 6 nM in the experiment with Mouse splenocytes and more than 10 nM in experiment [1] (setting [2]). For the same compound, the “PBMC IL6 EC50 (nM)” value in experiment [1] (hIL6 in supernatant) is “inactive”.

With `CCCC(CO)Oc1nc(N)c2nc(O)n(Cc3ccc(CN)cc3)c2n1` (centres unmarked) [Compound 182, 6-amino-9-(4-(aminomethyl)benzyl)-2-((1-hydroxypentan-2-yl)oxy)-9H-purin-8-ol], the EC50 at mTLR7 is 5.9 nM; at hTLR7 it was 2.1 nM; in the experiment with Mouse splenocytes it was 2.4 nM; in experiment [1] (setting [2]) it was more than 10 nM; in experiment [1] (setting [3]), 5220 nM.

On to `CCOc1nc(N)c2nc(O)n(Cc3ccc(CN4CCC(CCN)CC4)cc3OC)c2n1` [Compound 140, 6-amino-9-(4-((4-(2-aminoethyl)piperidin-1-yl)methyl)-2-methoxybenzyl)-2-ethoxy-9H-purin-8-ol], for which the concentration for a half-maximal effect (EC50) on mTLR7 was 34.8 nM; on hTLR7, 6.8 nM; in the experiment on Mouse splenocytes it was 180 nM; in experiment [1] (setting [2]) it was more than 10 nM; in experiment [1] (setting [3]), 53.6 nM.

For `CCOc1nc(N)c2nc(O)n(Cc3ccc(CNCC(C)(C)O)cc3OC)c2n1` [Compound 101, 6-amino-2-ethoxy-9-(4-(((2-hydroxy-2-methylpropyl)amino)methyl)-2-methoxybenzyl)-9H-purin-8-ol], the concentration for a half-maximal effect (EC50) was 47.7 nM on mTLR7; 57 nM at hTLR7; 154 nM in the experiment on Mouse splenocytes; 0.1 to 1 nM in experiment [1] (setting [2]); 127 nM in experiment [1] (setting [3]).

For the compound `CCOc1nc(N)c2nc(O)n(Cc3ccc(CNCc4ccc(CNCc5ccc(CN)cc5)cc4)cc3OC)c2n1` [Compound 146, 6-amino-9-(4-(((4-(((4-(aminomethyl)benzyl)amino)methyl)benzyl)amino)-methyl)-2-methoxybenzyl)-2-ethoxy-9H-purin-8-ol], the EC50 at mTLR7 is 28.7 nM; on hTLR7 it was 5.8 nM; in the experiment with Mouse splenocytes, 12.9 nM; in experiment [1] (setting [2]), less than 0.1 nM; in experiment [1] (setting [3]), 16.7 nM.

In the case of `CCNCc1ccc(Cn2c(O)nc3c(N)nc(OCC)nc32)c(OC)c1` [Compound 124, 6-amino-2-ethoxy-9-(4-((ethylamino)methyl)-2-methoxybenzyl)-9H-purin-8-ol], the EC50 on mTLR7 is 33.5 nM; on hTLR7, 5.4 nM; with Mouse splenocytes, 744 nM; in experiment [1] (setting [2]), 0.1 to 1 nM; in experiment [1] (setting [3]) it was 674 nM.

As to `CCOc1nc(N)c2nc(O)n(Cc3ccc(CNCCC(=O)N[C@@H](Cc4c[nH]cn4)C(=O)O)cc3OC)c2n1` [Compound 116, (3-((4-((6-amino-2-ethoxy-8-hydroxy-9H-purin-9-yl)methyl)-3-methoxybenzyl)-amino)-propanoyl)-L-histidine], the 50% effective concentration (EC50) is 1020 nM at mTLR7; 184 nM on hTLR7; 2180 nM in the experiment on Mouse splenocytes; more than 10 nM in experiment [1] (setting [2]); 3080 nM in experiment [1] (setting [3]).

For the compound `CCOc1nc(N)c2nc(O)n(Cc3ccc(CN(CC(=O)O)CC(=O)O)cc3OC)c2n1` [Compound 120, 2,2′-((4-((6-amino-2-ethoxy-8-hydroxy-9H-purin-9-yl)methyl)-3-methoxy-benzyl)azanediyl) diacetic Acid], the EC50 is 637 nM on mTLR7; 33.2 nM on hTLR7; 881 nM in the experiment on Mouse splenocytes; more than 10 nM in experiment [1] (setting [2]); 524 nM in experiment [1] (setting [3]).

`CCCCOc1nc(N)c2nc(O)n(Cc3ccc(CCCNC4CCNCC4)cc3OC)c2n1` [Compound 176, 6-amino-2-butoxy-9-(2-methoxy-4-(3-(piperidin-4-ylamino)propyl)benzyl)-9H-purin-8-ol]: the EC50 was less than 0.1 nM on mTLR7, less than 0.1 nM at hTLR7, 5.8 nM in the experiment with Mouse splenocytes and more than 10 nM in experiment [1] (setting [2]). For the same compound, in experiment [1] (hIL6 in supernatant), the “PBMC IL6 EC50 (nM)” value is “inactive”.

For the compound `CCOc1nc(N)c2nc(O)n(Cc3ccc(CN4C[C@@H]5C[C@H]4CN5)cc3OC)c2n1` [Compound 128, 9-(4-(((1S,4S)-2,5-diazabicyclo[2.2.1]heptan-2-yl)methyl)-2-methoxybenzyl)-6-amino-2-ethoxy-9H-purin-8-ol], the EC50 on mTLR7 is 443 nM; on hTLR7, 18.2 nM; in experiment [1] (setting [2]), 1 to 10 nM; in experiment [1] (setting [3]), 167 nM. Also, the “Splenocyte IL6 EC50 (nM)” value with Mouse splenocytes was “inactive”.

For `CCCCOc1nc(N)c2nc(O)n(Cc3ccc(CN4CCNCC4)cc3OC)c2n1` [Compound 154, 6-amino-2-butoxy-9-(2-methoxy-4-(piperazin-1-ylmethyl)benzyl)-9H-purin-8-ol], the EC50 at mTLR7 is 2.9 nM; at hTLR7, 0.2 nM; with Mouse splenocytes, 217 nM; in experiment [1] (setting [2]), more than 10 nM; in experiment [1] (setting [3]), 1970 nM.

Consider `CCCCCNc1nc(N)c2nc(O)n(Cc3ccc(CN4CCC(N)CC4)cc3)c2n1` [Compound 188, 6-amino-9-(4-((4-aminopiperidin-1-yl)methyl)benzyl)-2-(pentylamino)-9H-purin-8-ol], for which the EC50 was 26.2 nM at mTLR7; 351 nM on hTLR7; 198 nM in the experiment with Mouse splenocytes; 1 to 10 nM in experiment [1] (setting [2]); 19.6 nM in experiment [1] (setting [3]).

For `CCCCOc1nc(N)c2nc(O)n(Cc3ccc(N4CCC5(CCNCC5)CC4)nc3)c2n1` [Compound 168, 9-((6-(3,9-diazaspiro[5.5]undecan-3-yl)pyridin-3-yl)methyl)-6-amino-2-butoxy-9H-purin-8-ol], the EC50 on mTLR7 was 5.7 nM; on hTLR7, 0.1 nM; in the experiment with Mouse splenocytes it was 35.7 nM; in experiment [1] (setting [2]) it was more than 10 nM. Also, the “PBMC IL6 EC50 (nM)” value in experiment [1] (hIL6 in supernatant) was “inactive”.
